Experimental data taken from ChEMBL document CHEMBL1129856, “Novel optimised quinuclidine squalene synthase inhibitors” (Bioorg Med Chem Lett, 1997).

Legend:
Rattus norvegicus [1] = species: Rattus norvegicus; test: Tested for inhibition against rat cholesterol biosynthesis; format: functional
[2] = Plasma half life of hydrolysis of the compound; format: ADME, organism-based; conditions: rat
Squalene synthase [3] = molecular target: T1, Squalene synthase (Rattus norvegicus, UniProt Q02769); test: Tested for its inhibitory activity against rat microsomal […] squalene synthase (SQS)
T1 sequence (Q02769 whole entry): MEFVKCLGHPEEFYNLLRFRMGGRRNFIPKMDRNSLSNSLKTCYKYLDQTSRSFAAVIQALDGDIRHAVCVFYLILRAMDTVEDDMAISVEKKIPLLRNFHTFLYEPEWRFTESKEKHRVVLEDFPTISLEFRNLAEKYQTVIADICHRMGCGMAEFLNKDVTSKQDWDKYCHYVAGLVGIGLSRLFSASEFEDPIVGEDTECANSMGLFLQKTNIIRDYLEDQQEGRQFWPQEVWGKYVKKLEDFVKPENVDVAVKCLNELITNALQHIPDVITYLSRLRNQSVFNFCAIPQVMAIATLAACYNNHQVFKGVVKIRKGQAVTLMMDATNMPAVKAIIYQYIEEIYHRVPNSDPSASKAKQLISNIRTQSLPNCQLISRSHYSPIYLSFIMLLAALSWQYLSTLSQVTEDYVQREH

Squalene synthase [4] = molecular target: T2, Squalene synthase (Homo sapiens, UniProt P37268); test: Tested for its inhibitory activity against human microsomal […] squalene synthase (SQS)
T2 sequence (P37268 whole entry): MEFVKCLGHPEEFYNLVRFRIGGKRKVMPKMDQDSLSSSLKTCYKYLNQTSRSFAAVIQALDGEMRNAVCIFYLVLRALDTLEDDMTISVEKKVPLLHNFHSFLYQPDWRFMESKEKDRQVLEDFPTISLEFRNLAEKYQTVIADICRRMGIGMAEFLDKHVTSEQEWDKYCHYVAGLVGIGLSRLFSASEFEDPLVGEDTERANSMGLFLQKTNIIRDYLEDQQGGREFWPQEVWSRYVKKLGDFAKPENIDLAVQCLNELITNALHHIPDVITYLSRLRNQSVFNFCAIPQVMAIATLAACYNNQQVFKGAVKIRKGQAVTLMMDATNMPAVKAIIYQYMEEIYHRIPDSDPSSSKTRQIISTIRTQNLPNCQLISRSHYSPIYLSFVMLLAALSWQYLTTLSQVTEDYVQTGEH

Rattus norvegicus [5] = species: Rattus norvegicus; test: Tested for inhibition of cholesterol biosynthesis in rat; format: functional

SMILES: C=CCc1cc(CCC(=O)OCC)ccc1C#CC1(O)CN2CCC1CC2 (stereo not drawn)
- ED50 (Rattus norvegicus [1]): 1.3 mg/kg
- half-life [2]: ≤ 5 min
- Ki (Squalene synthase [3]): 6 nM
- Ki (Squalene synthase [4]): 43 nM

SMILES: C=CCc1cc(CCC(=O)NC)ccc1C#CC1(O)CN2CCC1CC2 (stereo not drawn)
- Ki (Squalene synthase [3]): > 250 nM

SMILES: C=CCc1cc(CCC(=O)O)ccc1C#C[C@@]1(O)CN2CCC1CC2.Cl (single isomer, unassigned)
- ED50 (Rattus norvegicus [5]): 0.9 mg/kg

SMILES: C=CCc1cc(CC(=O)OCC)ccc1C#CC1(O)CN2CCC1CC2 (stereo not drawn)
- Ki (Squalene synthase [3]): 100 nM

SMILES: C=CCc1cc(CCCCCC(=O)OC)ccc1C#CC1(O)CN2CCC1CC2 (stereo not drawn)
- ED50 (Rattus norvegicus [1]): 1.3 mg/kg
- Ki (Squalene synthase [3]): 20 nM

SMILES: C=CCc1cc(CCC(=O)OCCCCCC)ccc1C#CC1(O)CN2CCC1CC2 (stereo not drawn)
- half-life [2]: ≤ 5 min
- ED50 (Rattus norvegicus [5]): 1.5 mg/kg

SMILES: C=CCc1cc(CCCC(=O)OC)ccc1C#CC1(O)CN2CCC1CC2 (stereo not drawn)
- ED50 (Rattus norvegicus [1]): 1.3 mg/kg
- Ki (Squalene synthase [3]): 2 nM

SMILES: C=CCc1cc(CCC(=O)OC)ccc1C#CC1(O)CN2CCC1CC2 (stereo not drawn)
- ED50 (Rattus norvegicus [1]): 1.3 mg/kg
- Ki (Squalene synthase [3]): 20 nM

SMILES: C=CCc1cc(CCC#N)ccc1C#CC1(O)CN2CCC1CC2 (stereo not drawn)
- Ki (Squalene synthase [3]): > 250 nM

SMILES: C=CCc1cc(CCCCC(=O)OC)ccc1C#CC1(O)CN2CCC1CC2 (stereo not drawn)
- ED50 (Rattus norvegicus [1]): 1.3 mg/kg
- Ki (Squalene synthase [3]): 8 nM

SMILES: C=CCc1cc(CCC(=O)OCc2ccccc2)ccc1C#CC1(O)CN2CCC1CC2 (stereo not drawn)
- half-life [2]: ≤ 5 min
- ED50 (Rattus norvegicus [5]): 1.6 mg/kg

SMILES: C=CCc1cc(CCC(=O)O)ccc1C#CC1(O)CN2CCC1CC2.Cl (stereo not drawn)
- ED50 (Rattus norvegicus [5]): 1.8 mg/kg

SMILES: C=CCc1cc(CCC(=O)N(CC)CC)ccc1C#CC1(O)CN2CCC1CC2 (stereo not drawn)
- Ki (Squalene synthase [3]): > 250 nM

SMILES: C=CCc1cc(CCC(N)=O)ccc1C#CC1(O)CN2CCC1CC2 (stereo not drawn)
- Ki (Squalene synthase [3]): > 250 nM
